Data published in patent publication US20100203634A1, “Inhibition of stem cell differentiation, enhancement of proliferation and selective induction of apoptosis by Wnt factors” (DeltaCell B.V., priority 2003, published 2010).
Entries after “also recorded” stand apart in the source; their conditions may differ.

Legend:
[1] = system: mesenchyme and epithelium of fetal lung explants; assay: BrdU incorporation immunostaining on lung explants; assay type: cell-based, mouse; details: four days
Procedure: (§1) The primary antibodies used for the immunohistochemical detection was for beta-catenin; anti beta-catenin IgG, mAb, clone 14 from BD-Transduction Laboratories, for tubulin-beta mAb clone TBN05 (Tub2.1) from Neomarkers, for BrdU; anti-Bromodeoxyuridine (BrdU), mAb clone ZBU30 from Zymed Laboratories Inc.
(§2) To further analyze the effect of Wnt3a upon apoptosis and proliferation, lung explants were cultured for four days in the presence of 0, 4, 20, 100, 250, 500, 750 and 1000 ng/ml. In order to identify whether after Wnt3A treatment cells are viable and active, proliferating BrdU was added to the culture medium, which is incorporated in newly synthesized DNA of active proliferating cells, two hours before the fixation of the lung explants. […] To better investigate this effect, histological sections were analyzed with the TUNEL assay, which detects fragmented DNA present in apoptotic cells (material and methods).
In order to identify whether the epithelial cells were still actively proliferating after four days of Wnt3a treatment, the histological sections were immunostained for incorporated BrdU (FIG. 6).

[2] = system: Wnt-signaling pathway in primary lung fibroblasts isolated from a E12.5 fetal lung; assay: TopFlash/FopFlash reporter assay, primary fetal lung cells; assay type: cell-based, mouse; details: 0.4 to 500 ng/ml, 20 hours
Procedure: (§3) Primary mouse fibroblasts isolated from E12.5 lung explants, the human epithelial lung carcinoma cell line A549 cells (ATCC CCL-185), the human epithelial lung adenocarcinoma cell line Calu-3 (ATCC_HTB-55) and the normal human fetal lung fibroblast cell line HFL-1 cells (ATCC—153) were cultured in 96-well plates and transfected with the TopFlash and FopFlash reporter constructs using lipofectamine 2000 according to the manufacturer's instructions. As an internal control for transfection efficiency, a constitutive renilla luciferase reporter (Promega) was cotransfected. The cells were transfected with the above-mentioned reporter constructs and simultaneously treated with different concentrations of Wnt3A for 20 hours, after which the cells were lysed and luciferase expression was measured using a Berthold luminometer for two seconds (V. Korinek et al., Mol. Cell. Biol. 18:1248-1256, 1998). The Lipofectamine 2000 transfection reagent was purchased from Invitrogen Life Technologies. The wild-type beta-catenin/TCF reporter plasmid (TOPFLASH) and mutated reporter plasmid (FOPFLASH) were obtained from Upstate Biotechnology (NY, USA).
The dissociated lungs were co-transfected with the TopFlash reporter construct that is activated by nuclear beta-catenin transcription complexes. […]

[3] = system: fetal lung explants (E12.5); assay: Expression profiling of lung explants, Affymetrix MOE430AB microarray; assay type: cell-based, mouse
Procedure: To further investigate the effect of Wnt3A inhibition on lung differentiation, we analyzed the expression profiles of Wnt3A-treated lung explants with microarray analysis using the Affymetrix chip set MOE430AB, containing the complete mouse transcriptome. The lung explants, per condition, ten complete fetal lungs isolated from E12.5 embryos, were treated for four hours with 0 and 250 ng/ml Wnt3A (Wnt0/4 hr and Wnt250/4 hr, respectively), and for 24 hours with 0, 10, 50 and 250 ng/ml Wnt3A ([…], […], Wnt50/24 hr, Wnt250/24 hr, respectively). The 60 lung explants were isolated together from six pregnant Swiss mice and randomly distributed over the six different conditions.
After the indicated time period, total RNA was isolated, which was processed for the synthesis of a probe for hybridization onto the MOE-430AB chip sets. […] A rapid response was observed when the lungs were treated for four hours with 250 ng/ml Wnt3A.

[4] = system: Wnt-signaling pathway in human epithelial lung carcinoma cell line A549; assay: TopFlash/FopFlash reporter assay, A549; assay type: cell-based; details: A549, 20 hours
Procedure: as §3, with “The Lipofectamine 2000 transfection reagent was purchased from Invitrogen Life Technologies. The wild-type beta-catenin/TCF reporter plasmid (TOPFLASH) and mutated reporter plasmid (FOPFLASH) were obtained from Upstate Biotechnology (NY, USA).” left out
In order to analyze if Wnt3A is able to activate the Wnt signal-transduction pathway in humans, we stimulated three different cell lines from human origin with Wnt3A and measured the response with the TopFlash/FopFlash reporter assay. The three human lung-derived cell lines analyzed were the lung epithelial carcinoma cell line A549 (FIG. 9B), the normal lung fibroblast line HFL-1 (FIG. 9C), and the epithelial adenocarcinoma cell line calu-3 (FIG. 9D).

[5] = system: mesenchyme and epithelium of fetal lung explants; assay: PCNA immunohistochemistry (proliferation) on lung explants; assay type: cell-based, mouse
Procedure: Detection of the PCNA epitopes was carried out by treating the sections with di-aminobenzidine (DAB) for 15 minutes.
The antibody against PCNA was purchased from Zymed Laboratories Inc. (cat nr. 18-0110). The secondary conjugate used was from Jackson Laboratories, Inc. (catalog nr. 115-056-062).

[6] = system: beta-catenin; assay: Nuclear translocation of beta-catenin, immunohistology of fetal lung explants; assay type: cell-based, mouse
Procedure: FIG. 8: Nuclear translocation of beta-catenin by Wnt3A in fetal lung explants. The translocation of beta-catenin was determined using immunohistological analysis of histological sections from fetal lung explants (E12.5), cultured for two days in the presence of Wnt3a at a concentration of 0 ng/ml (Panel A); 10 ng/ml (Panel B); 50 ng/ml (Panel C); 250 ng/ml (Panel D); 500 ng/ml (Panel E) and 1000 ng/ml (Panel F).
as §1
In order to determine whether Wnt3A actually elevates the Wnt-signaling pathway in these explants, histological sections were stained for beta-catenin, the intracellular factor, which, together with members of the high mobility group (HMG) of transcription factors such as TCF1 and LEF, transducer the Wnt signal to the nucleus.

[7] = system: mesenchyme and epithelium of fetal lung explants; assay: TUNEL assay on sections of fetal lung explants; assay type: cell-based, mouse
Procedure: The induction of apoptosis was detected using the “In Situ Cell Death Detection Kit,” of Roche (Cat. No. 11 684 817 001) according to the manufacturer's instructions.
as §2

[8] = 250 ng/ml, four hours, versus 0 ng/ml four hours
[9] = 24 hours, "the ng/ml wnt3a-treated group"

Wnt3a
BrdU-positive (active proliferating) cells ([1]; 500 ng/ml and lower): both the mesenchyme and epithelium contained many BrdU-positive
BrdU-positive (active proliferating) cells ([1]; 750 ng/ml): intermediate effect
BrdU-positive (active proliferating) cells ([1]; 1000 ng/ml): almost all BrdU-positive cells were present in the epithelium
TopFlash versus FopFlash reporter response [2]: clear Wnt3A dosage-dependent response
changes in gene expression ([3]; 10 ng/ml, 24 hours): capable of inducing significant changes in gene expression
down-regulated genes ([3]; 50 ng/ml, 24 hours): 92 genes
up-regulated genes ([3]; 50 ng/ml, 24 hours): 95 genes
genes whose four-hour profile is opposite from the 24-hour Wnt3A-treated profiles ([3]; 250 ng/ml four hours versus 24-hour groups): circa 75%
down-regulated genes, more than two-fold ([3]; 250 ng/ml, 24 hours): 152 genes
up-regulated genes, more than two-fold ([3]; 250 ng/ml, 24 hours): 195 genes
down-regulated genes, more than two-fold [3, 8]: 1165 genes
up-regulated genes, more than two-fold [3, 8]: 446 genes
cluster analysis of expression profiles of 4500 genes: effect on differentiation ([3]; 10, 50 and 250 ng/ml, 24 hours): inhibits, at least partially, the differentiation of fetal lung tissue; also recorded: inhibits lung differentiation and development
down-regulated genes, more than two-fold [3, 9]: 223 genes
up-regulated genes, more than two-fold [3, 9]: 209 genes
TopFlash/FopFlash reporter response [4]: respond to Wnt3A in a dosage-dependent manner; also recorded: strong induction of the Wnt-signaling pathway
PCNA staining in the bronchial epithelium ([5]; 500 ng/ml, two days): marked overall increase in the intensity and frequency of PCNA staining; also recorded: elevated PCNA staining
PCNA staining (proliferation) of epithelium and mesenchyme ([5]; 1000 ng/ml, five days): the epithelium was still proliferating whereas most of the mesenchymal cells were inactive or dead; also recorded: strong reduction in proliferation of the mesenchyme versus the epithelium
PCNA staining ([5]; 1000 ng/ml, two days): reduces the PCNA staining below the control situation
PCNA staining ([5]; 2000 and 4000 ng/ml, two days): completely negative
concentration at which proliferation is absent / inhibited ([5]; lung explants): above 2000 ng/ml
nuclear beta-catenin ([6]; 10-1000 ng/ml, within the first two days, mesenchymal cells around lung buds): dosage-dependent increase in nuclear beta-catenin
nuclear beta-catenin ([6]; 250 and 500 ng/ml, two days): maximal; also recorded: strong induction of nuclear beta-catenin
nuclear beta-catenin ([6]; four- and eight-day cultures): had disappeared
TUNEL-positive epithelial cells ([7]; 1000 ng/ml, four days): almost none of the epithelial cells were TUNEL positive
apoptosis in the mesenchyme (TUNEL) ([7]; 1000 ng/ml, four days): massive induction of apoptosis in the mesenchyme
mesenchymal cells picnotic and TUNEL positive ([7]; 1000 ng/ml, four days): ~100%
TUNEL-positive epithelial cells ([7]; 1000 ng/ml, four days, listed as Wnt3A): unaffected epithelium
concentration at which TUNEL-positive (apoptotic) cells increase ([7]; four days of culture): above 100 ng/ml
